Where “and” joins values, the source holds several entries; their conditions need not be identical. Equal values may be shown once.
What was measured:
[1] = xn = mol fraction of the nth substance listed

CCCC=O
Conditions | viscosity [mPa·s]
298.1 K, 101 kPa | 0.403

CC(C)(C)c1ccccc1
viscosity [mPa·s]
Conditions | 293.15 K | 298.15 K | 303.15 K | 308.15 K | 313.15 K | 318.15 K | 323.15 K
100 kPa | – | 1.118 | – | 0.97 | – | 0.853 | –
102 kPa | 1.13 | – | 0.982 | – | 0.854 | – | 0.751

CCCCCCCC[P+](CC)(CC)CC.O=[N+]([O-])c1cnc[n-]1
100 kPa
Conditions | viscosity [mPa·s]
293.15 K | 398
298.15 K | 286
303.15 K | 212
308.15 K | 160
313.15 K | 124
318.15 K | 98
323.15 K | 78

CCC[N+]1(C)CCCCC1.O=S(=O)([N-]S(=O)(=O)C(F)(F)F)C(F)(F)F
101.3 kPa
Conditions | viscosity [mPa·s]
293.15 K | 199
298.15 K | 147
303.15 K | 112
308.15 K | 86.6
313.15 K | 68.5
318.15 K | 55.1
323.15 K | 45.1

CCCCCOC(=O)CCC
101 kPa
Conditions | viscosity [mPa·s]
298.15 K | 1.07
313.15 K | 0.86

C=CC(=O)OCCCC
viscosity
Conditions | 293.15 K | 298.15 K | 303.15 K | 308.15 K | 313.15 K | 318.15 K
100 kPa | 0.8996 mPa·s | 0.8385 mPa·s | 0.782 mPa·s | 0.7306 mPa·s | 0.6833 mPa·s | 0.6387 mPa·s
101 kPa | 0.8996 mPa·s and 0.868 mPa·s | – | 0.782 mPa·s and 0.751 mPa·s and 0.781 mPa·s | – | 0.6833 mPa·s and 0.658 mPa·s and 0.684 mPa·s | 0.6387 mPa·s and 0.618 mPa·s
101.33 kPa | 0.8763 mPa·s | – | 0.7568 mPa·s | – | 0.6609 mPa·s | –

C1CCC2=[NH+]CCCN2CC1.c1nc[n-]n1
Conditions | viscosity [mPa·s]
303.15 K, 100 kPa | 1356

CC1CCCO1 (configuration not stated)
298.15 K
Conditions | viscosity [mPa·s]
101 kPa | 0.463
101.33 kPa | 0.4753

Cc1ccccc1O
viscosity
Conditions | 293.15 K | 298.15 K | 308.15 K | 313.15 K | 318.15 K | 323.15 K
101 kPa | 9.56 mPa·s | 7.607 mPa·s and 7.608 mPa·s | – | 4.312 mPa·s and 4.238 mPa·s and 4.1 mPa·s | 3.506 mPa·s and 2.215 mPa·s | –
101.3 kPa | – | – | – | 4.243 mPa·s | – | 3.02 mPa·s
101.33 kPa | – | 7.493 mPa·s | 4.853 mPa·s | – | 3.359 mPa·s | 2.83 mPa·s

CC(=O)OC(C)(C)C
101 kPa
Conditions | viscosity [mPa·s]
298.15 K | 0.683
308.15 K | 0.596

C=CC(=O)OC
viscosity
Conditions | 293.15 K | 298.15 K | 303.15 K | 308.15 K | 313.15 K | 318.15 K
100 kPa | 0.5038 mPa·s | 0.4602 mPa·s | 0.435 mPa·s and 0.4197 mPa·s | 0.415 mPa·s and 0.3856 mPa·s | 0.396 mPa·s and 0.355 mPa·s | 0.3276 mPa·s
101 kPa | 0.5038 mPa·s and 0.492 mPa·s and 0.502 mPa·s | – | – | – | – | 0.3276 mPa·s and 0.375 mPa·s and 0.334 mPa·s

CCCCCCCCCCCCc1ccccc1
102 kPa
Conditions | viscosity [mPa·s]
293.15 K | 5.47
303.15 K | 4.21
313.15 K | 3.33
323.15 K | 2.71

CN(C)CCO
viscosity
Conditions | 293.15 K | 298.15 K | 303.15 K | 308.15 K | 313.15 K | 318.15 K | 323.15 K
101 kPa | 4.27 mPa·s | 3.78 mPa·s | 3.24 mPa·s and 2.835 mPa·s | 2.91 mPa·s and 2.485 mPa·s | 2.53 mPa·s and 2.186 mPa·s | 2.27 mPa·s and 1.938 mPa·s | 2.04 mPa·s and 1.723 mPa·s
101.3 kPa | – | – | 2.419 mPa·s | – | 2.023 mPa·s | – | 1.734 mPa·s

CC(C)CO
Conditions | viscosity
293.15 K, 101 kPa | 4.02 mPa·s and 4.009 mPa·s
293.15 K, 101.33 kPa | 4.008 mPa·s and 2.75 mPa·s
297 K, 101 kPa | 3.569 mPa·s
298.15 K, 101.3 kPa | 3.247 mPa·s and 3.256 mPa·s
298.15 K, 101.33 kPa | 3.537 mPa·s and 3.41 mPa·s and 3.41 mPa·s
303 K, 101 kPa | 2.943 mPa·s
303 K, 101.33 kPa | 2.58 mPa·s
303.15 K, 100 kPa | 2.938 mPa·s and 2.781 mPa·s
303.15 K, 101.3 kPa | 2.745 mPa·s and 2.743 mPa·s and 2.842 mPa·s
303.15 K, 101.33 kPa | 2.54 mPa·s and 2.982 mPa·s and 2.1 mPa·s
308 K, 101 kPa | 2.261 mPa·s
308.15 K, 100 kPa | 2.487 mPa·s and 2.231 mPa·s
308.15 K, 101.33 kPa | 2.433 mPa·s
313 K, 101 kPa | 2.169 mPa·s
313.15 K, 100 kPa | 2.174 mPa·s
313.15 K, 101 kPa | 2.17 mPa·s and 2.138 mPa·s and 1.96 mPa·s
313.15 K, 101.3 kPa | 2.08 mPa·s
313.15 K, 101.33 kPa | 2.186 mPa·s and 1.65 mPa·s
318.15 K, 101 kPa | 1.751 mPa·s and 1.834 mPa·s
318.15 K, 101.33 kPa | 1.804 mPa·s
323 K, 101 kPa | 1.632 mPa·s
323.15 K, 100 kPa | 1.637 mPa·s
323.15 K, 101.33 kPa | 1.663 mPa·s

ClCC(Cl)Cl
viscosity [mPa·s]
Conditions | 298.15 K | 308.15 K | 313.15 K
100 kPa | – | 0.953 | 0.887
101 kPa | 1.061 | – | –

CCCCCCCCCCCCCC(=O)OC
Conditions | viscosity [mPa·s]
323.15 K, 100 kPa | 2.301

O=C([O-])CC(O)(CC(=O)[O-])C(=O)[O-].[NH3+]CCO.[NH3+]CCO.[NH3+]CCO
101 kPa
Conditions | viscosity [mPa·s]
293.15 K | 183.9
303.15 K | 113.8
313.15 K | 67.2
323.15 K | 37.38

O=C1OCCO1
viscosity
Conditions | 298.15 K | 313.15 K | 323.15 K
100 kPa | – | 1.81 mPa·s and 1.917 mPa·s | 1.56 mPa·s
101.3 kPa | 2.263 mPa·s | 1.879 mPa·s | –
101.33 kPa | – | 1.93 mPa·s | –

CCOC(=O)CC
Conditions | viscosity [mPa·s]
303.15 K, 101 kPa | 0.4833

CCn1cc[n+](C)c1.O=S(=O)([O-])C(F)(F)F
101 kPa
Conditions | viscosity
293.15 K | 48.6 mPa·s
298.15 K | 43.8 mPa·s and 40.44 mPa·s
303.15 K | 36.7 mPa·s and 34.02 mPa·s
308.15 K | 32.28 mPa·s
313.15 K | 26.6 mPa·s and 24.89 mPa·s
318.15 K | 21.55 mPa·s
323.15 K | 18.64 mPa·s

C=CC(=O)OC + CCCCCCCCCC
viscosity [mPa·s], [1], 100 kPa
Conditions | x1 = 0.1092 | x1 = 0.2047 | x1 = 0.3019 | x1 = 0.4034 | x1 = 0.5015 | x1 = 0.5969 | x1 = 0.6987 | x1 = 0.7998 | x1 = 0.8966
303.15 K | 0.733 | 0.683 | 0.638 | 0.595 | 0.561 | 0.532 | 0.506 | 0.483 | 0.462
308.15 K | 0.668 | 0.625 | 0.585 | 0.548 | 0.519 | 0.495 | 0.474 | 0.456 | 0.437
313.15 K | 0.644 | 0.604 | 0.566 | 0.53 | 0.501 | 0.478 | 0.457 | 0.438 | 0.42

C=CC(=O)OCCCC + CCCCCCCO
viscosity [mPa·s], [1], 101.3 kPa
Conditions | x1 = 0.0538 | x1 = 0.1451 | x1 = 0.1979 | x1 = 0.2976 | x1 = 0.5964 | x1 = 0.6984 | x1 = 0.7966 | x1 = 0.8968 | x1 = 0.9498
298.15 K | 4.656 | 3.548 | 3.084 | 2.394 | 1.35 | 1.12 | 0.981 | 0.869 | 0.824
308.15 K | 3.481 | 2.761 | 2.398 | 1.922 | 1.084 | 0.925 | 0.836 | 0.736 | 0.705

CCCCCOC(C)=O + CC(=O)OCc1ccccc1
Conditions | viscosity [mPa·s]
[1], 298.15 K, 101 kPa, x1 = 0.5 | 0.9738

COC(N)=O + CCOC(N)=O
[1], 101.33 kPa, x2 = 0.5
Conditions | viscosity [mPa·s]
298.15 K | 7.716
313.15 K | 4.41

CC(C)CO + c1ccccc1
[1], 303 K, 101.3 kPa
Conditions | viscosity [mPa·s]
x2 = 0.1012 | 2.322
x2 = 0.2055 | 1.88
x2 = 0.3024 | 1.551
x2 = 0.4124 | 1.26
x2 = 0.511 | 1.057
x2 = 0.6016 | 0.9052
x2 = 0.706 | 0.7704
x2 = 0.8037 | 0.6783
x2 = 0.8987 | 0.6131

O=C1OCCO1 + O
[1], 298.15 K, 101 kPa
Conditions | viscosity [mPa·s]
x1 = 0.0166 | 0.955
x1 = 0.0221 | 0.968
x1 = 0.0415 | 1.038
x1 = 0.0635 | 1.096
x1 = 0.0897 | 1.172
x1 = 0.1194 | 1.253
x1 = 0.1403 | 1.309
x1 = 0.1625 | 1.377
x1 = 0.2345 | 1.519
x1 = 0.3229 | 1.647
x1 = 0.3784 | 1.704
x1 = 0.4412 | 1.751
x1 = 0.5409 | 1.831
x1 = 0.6443 | 1.898

CC(C)CO + CCO
[1], 101 kPa, x2 = 0.5
Conditions | viscosity [mPa·s]
308.15 K | 1.598
313.15 K | 1.479
318.15 K | 1.308
